Several values for one entry are separate records, joined by “and”; a condition that tells them apart may be missing. Equal values may be shown once. Inconclusive results and toxic doses are left out. The calls were made as follows: active = survival T/C of 150% or more; inactive = T/C below 125% in these data.
Test system: BDF1 mice, intracerebral B16 melanoma, median survival T/C
Assay: NCI In Vivo Anticancer Drug Screen. Data for tumor model B16 Melanoma (intracerebral) in B6D2F1 (BDF1) mice
Settings: endpoint: median survival time, higher = longer survival
Procedure: The antitumor activity of compounds was measured in mice bearing transplantable tumors. Survival or tumor size were measured and the results are expressed as the measurement made in the treated group (T) divided by the measurement made in the vehicle treated control group (C). The tumor model used in this assay is B16 Melanoma (intracerebral) in B6D2F1 (BDF1) mice

[1] = dose: 4.0 mg/kg/injection, schedule: Q01DX005 (ip), vehicle: saline with Tween-80
[2] = dose: 4.0 mg/kg/injection, schedule: Q01DX005 (ip), vehicle: saline
[3] = dose: 32.0 mg/kg/injection, schedule: Q01DX005 (ip), vehicle: Klucel (hydroxypropylcellulose) (HPC)
[4] = dose: 4.0 mg/kg/injection, schedule: Q01DX005 (ip), vehicle: suspension in saline
[5] = dose: 8.0 mg/kg/injection, schedule: Q01DX005 (ip), vehicle: suspension in saline

Measured: T/C

O=C1c2ccccc2C(=O)c2c(NCCNCCO)ccc(NCCNCCO)c21
inactive: dose: 1.0 mg/kg/injection, schedule: Q01DX005 (ip), vehicle: saline with Tween-80 120 % of control and 111 % of control | dose: 1.0 mg/kg/injection, schedule: Q01DX005 (ip), vehicle: saline 99 % of control and 107 % of control | dose: 2.0 mg/kg/injection, schedule: Q01DX005 (ip), vehicle: saline with Tween-80 118 % of control and 109 % of control | dose: 2.0 mg/kg/injection, schedule: Q01DX005 (ip), vehicle: saline 120 % of control and 99 % of control | [1] 109 % of control | [2] 104 % of control and 112 % of control | dose: 4.0 mg/kg/injection, schedule: Q01DX009 (ip), vehicle: saline with Tween-80 99 % of control and 102 % of control | dose: 4.0 mg/kg/injection, schedule: Q01DX009 (ip), vehicle: saline 95 % of control and 103 % of control | dose: 8.0 mg/kg/injection, schedule: Q01DX009 (ip), vehicle: saline with Tween-80 93 % of control and 102 % of control | dose: 8.0 mg/kg/injection, schedule: Q01DX009 (ip), vehicle: saline 98 % of control and 102 % of control | dose: 16.0 mg/kg/injection, schedule: Q01DX005 (ip), vehicle: Klucel (hydroxypropylcellulose) (HPC) 116 % of control | dose: 16.0 mg/kg/injection, schedule: Q01DX009 (ip), vehicle: saline with Tween-80 100 % of control | dose: 16.0 mg/kg/injection, schedule: Q01DX009 (ip), vehicle: saline 102 % of control and 103 % of control | [3] 107 % of control | dose: 32.0 mg/kg/injection, schedule: Q01DX009 (ip), vehicle: saline 86 % of control

COc1cc(NS(C)(=O)=O)ccc1Nc1c2ccccc2nc2c(C)cccc12
inactive: dose: 5.0 mg/kg/injection, schedule: Q04DX003 (ip), vehicle: Klucel (hydroxypropylcellulose) (HPC) 88 % of control | dose: 5.0 mg/kg/injection, schedule: Q04DX003 (ip), vehicle: saline 108 % of control | dose: 10.0 mg/kg/injection, schedule: Q04DX003 (ip), vehicle: Klucel (hydroxypropylcellulose) (HPC) 91 % of control | dose: 10.0 mg/kg/injection, schedule: Q04DX003 (ip), vehicle: saline 100 % of control | dose: 20.0 mg/kg/injection, schedule: Q04DX003 (ip), vehicle: saline 116 % of control

CC1CCC(NC(=O)N(CCCl)N=O)CC1 (configuration not stated)
inactive: dose: 0.5 mg/kg/injection, schedule: Q01DX009 (ip), vehicle: Klucel (hydroxypropylcellulose) (HPC) 105 % of control | dose: 1.0 mg/kg/injection, schedule: Q01DX009 (ip), vehicle: Klucel (hydroxypropylcellulose) (HPC) 102 % of control | dose: 2.0 mg/kg/injection, schedule: Q01DX009 (ip), vehicle: Klucel (hydroxypropylcellulose) (HPC) 111 % of control | dose: 4.0 mg/kg/injection, schedule: Q01DX009 (ip), vehicle: Klucel (hydroxypropylcellulose) (HPC) 117 % of control | dose: 6.48 mg/kg/injection, schedule: Q01DX001 (ip), vehicle: other 106 % of control | dose: 10.8 mg/kg/injection, schedule: Q01DX001 (ip), vehicle: other 117 % of control | dose: 50.0 mg/kg/injection, schedule: Q01DX001 (ip), vehicle: other 118 % of control

O=C1NC2(CCCCC2)C(=O)N1CCN(CCCl)CCCl
inactive: dose: 1.5 mg/kg/injection, schedule: Q01DX009 (ip), vehicle: saline with Tween-80 97 % of control | dose: 3.0 mg/kg/injection, schedule: Q01DX009 (ip), vehicle: saline with Tween-80 103 % of control | dose: 6.0 mg/kg/injection, schedule: Q01DX009 (ip), vehicle: saline with Tween-80 106 % of control | dose: 12.0 mg/kg/injection, schedule: Q01DX009 (ip), vehicle: saline with Tween-80 103 % of control

CN=S(=O)(OCCCCCOS(=O)(=NC)c1ccccc1)c1ccccc1 (configuration not stated)
inactive: dose: 6.25 mg/kg/injection, schedule: Q01DX009 (ip), vehicle: saline with Tween-80 109 % of control | dose: 12.5 mg/kg/injection, schedule: Q01DX009 (ip), vehicle: saline with Tween-80 91 % of control | dose: 25.0 mg/kg/injection, schedule: Q01DX009 (ip), vehicle: saline with Tween-80 100 % of control

OC(C1CO1)C(O)C1CO1 (configuration not stated)
inactive: dose: 0.12 mg/kg/injection, schedule: Q01DX009 (ip), vehicle: saline 100 % of control and 101 % of control | dose: 0.25 mg/kg/injection, schedule: Q01DX009 (ip), vehicle: saline 122 % of control and 110 % of control | dose: 0.5 mg/kg/injection, schedule: Q01DX009 (ip), vehicle: saline 94 % of control and 112 % of control | dose: 1.0 mg/kg/injection, schedule: Q01DX009 (ip), vehicle: saline 120 % of control and 103 % of control | dose: 2.0 mg/kg/injection, schedule: Q01DX009 (ip), vehicle: saline 123 % of control

CC(C)=CCC1=C(O)c2ccccc2C(=O)C1=O
inactive: [3] 98 % of control | dose: 64.0 mg/kg/injection, schedule: Q01DX005 (ip), vehicle: Klucel (hydroxypropylcellulose) (HPC) 90 % of control and 96 % of control | dose: 128.0 mg/kg/injection, schedule: Q01DX005 (ip), vehicle: Klucel (hydroxypropylcellulose) (HPC) 87 % of control and 105 % of control | dose: 256.0 mg/kg/injection, schedule: Q01DX005 (ip), vehicle: Klucel (hydroxypropylcellulose) (HPC) 90 % of control and 96 % of control

CCN(CC)c1ccc2cc3ccc(=[N+](CC)CC)cc-3oc2c1
inactive: [2] 100 % of control | [4] 93 % of control | dose: 8.0 mg/kg/injection, schedule: Q01DX005 (ip), vehicle: saline 98 % of control | [5] 113 % of control

Cc1c2ccncc2c(C)c2c1[nH]c1ccccc12
inactive: dose: 10.0 mg/kg/injection, schedule: Q01DX009 (ip), vehicle: saline 113 % of control

O=P1(N(CCCl)CCCl)NCCCO1 (configuration not stated)
inactive: dose: 12.5 mg/kg/injection, schedule: Q01DX009 (ip), vehicle: saline 116 % of control and 92 % of control | dose: 12.5 mg/kg/injection, schedule: Q01DX009 (ip), vehicle: water 108 % of control | dose: 25.0 mg/kg/injection, schedule: Q01DX009 (ip), vehicle: saline 100 % of control and 108 % of control | dose: 25.0 mg/kg/injection, schedule: Q01DX009 (ip), vehicle: water 116 % of control | dose: 50.0 mg/kg/injection, schedule: Q01DX009 (ip), vehicle: saline 120 % of control and 121 % of control | dose: 100.0 mg/kg/injection, schedule: Q01DX009 (ip), vehicle: saline 95 % of control | dose: 100.0 mg/kg/injection, schedule: Q01DX009 (ip), vehicle: water 104 % of control

CCC1=C(c2ccc(OC)cc2)CCC(C(=O)O)C1C (configuration not stated)
inactive: [1] 95 % of control | [4] 103 % of control | dose: 8.0 mg/kg/injection, schedule: Q01DX005 (ip), vehicle: saline with Tween-80 91 % of control | [5] 95 % of control | dose: 16.0 mg/kg/injection, schedule: Q01DX005 (ip), vehicle: suspension in saline 87 % of control | dose: 32.0 mg/kg/injection, schedule: Q01DX005 (ip), vehicle: saline with Tween-80 105 % of control | dose: 32.0 mg/kg/injection, schedule: Q01DX005 (ip), vehicle: suspension in saline 95 % of control

NC(=S)N/N=C/c1ccc(O)cn1
inactive: dose: 12.0 mg/kg/injection, schedule: Q01DX005 (ip), vehicle: saline 96 % of control | dose: 12.0 mg/kg/injection, schedule: Q01DX005 (ip), vehicle: suspension in saline 103 % of control | dose: 24.0 mg/kg/injection, schedule: Q01DX005 (ip), vehicle: saline 93 % of control | dose: 24.0 mg/kg/injection, schedule: Q01DX005 (ip), vehicle: suspension in saline 96 % of control | dose: 48.0 mg/kg/injection, schedule: Q01DX005 (ip), vehicle: saline 100 % of control | dose: 48.0 mg/kg/injection, schedule: Q01DX005 (ip), vehicle: suspension in saline 91 % of control | dose: 96.0 mg/kg/injection, schedule: Q01DX005 (ip), vehicle: saline 97 % of control | dose: 96.0 mg/kg/injection, schedule: Q01DX005 (ip), vehicle: suspension in saline 108 % of control

F
inactive: dose: 16.0 mg/kg/injection, schedule: Q01DX005 (ip), vehicle: saline 102 % of control | dose: 32.0 mg/kg/injection, schedule: Q01DX005 (ip), vehicle: saline 100 % of control

Reference: PubChem BioAssay AID196 (DTP/NCI, 2004)
